Relative viability data for 6 cell lines are collected here from the supplement of paper PMC10307832.

What all share (assay): relative viability (nuclei count vs DMSO), 5 days (fraction); higher = more cells survive
Compound in the assay “Avagacestat + Vorinostat”: NC(=O)[C@@H](CCC(F)(F)F)N(Cc1ccc(-c2ncon2)cc1F)S(=O)(=O)c1ccc(Cl)cc1 [Avagacestat] + O=C(CCCCCCC(=O)Nc1ccccc1)NO [Vorinostat] (partner 1 µM)
Summed up: (§1)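 The day after seeding in 1536-well plates, lung cancer cell lines were treated by pin tool with a single drug, or with a fixed anchor-drug dose together with five library-drug doses (not always all listed) in √10 steps. After 5 days, a combined fix-and-stain solution (final 0.05% Triton X-100, 1% formaldehyde, 1 ug/ml Hoechst) was added. Nuclei counted on 4× images gave relative viability as treated counts over vehicle counts, reported as the median of duplicate plates.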

Compound in the assay “Avagacestat + Dasatinib”: NC(=O)[C@@H](CCC(F)(F)F)N(Cc1ccc(-c2ncon2)cc1F)S(=O)(=O)c1ccc(Cl)cc1 [Avagacestat] + Cc1nc(Nc2ncc(C(=O)Nc3c(C)cccc3Cl)s2)cc(N2CCN(CCO)CC2)n1 [Dasatinib] (partner 0.075 µM)
Summed up:
as §1

Compound in the assay “Avagacestat + Navitoclax”: NC(=O)[C@@H](CCC(F)(F)F)N(Cc1ccc(-c2ncon2)cc1F)S(=O)(=O)c1ccc(Cl)cc1 [Avagacestat] + CC1(C)CCC(c2ccc(Cl)cc2)=C(CN2CCN(c3ccc(C(=O)NS(=O)(=O)c4ccc(N[C@H](CCN5CCOCC5)CSc5ccccc5)c(S(=O)(=O)C(F)(F)F)c4)cc3)CC2)C1 [Navitoclax] (partner 0.5 µM)
The essentials:
as §1

Compound in the assay “Avagacestat + Crizotinib”: NC(=O)[C@@H](CCC(F)(F)F)N(Cc1ccc(-c2ncon2)cc1F)S(=O)(=O)c1ccc(Cl)cc1 [Avagacestat] + C[C@@H](Oc1cc(-c2cnn(C3CCNCC3)c2)cnc1N)c1c(Cl)ccc(F)c1Cl [Crizotinib] (partner 1 µM)
Summed up: as §1

Turning to LOU-NH91, the relative viability in the assay with Avagacestat + Vorinostat (first compound 0.08 µM) stood at 1; with Avagacestat + Vorinostat (first compound 0.253 µM), 0.878; in the assay with Avagacestat + Vorinostat (first compound 0.8 µM), 1.03; in the assay with Avagacestat + Vorinostat (first compound 2.53 µM), 0.798; with Avagacestat + Vorinostat (first compound 8 µM), 0.885; in the assay with Avagacestat + Dasatinib (first compound 0.08 µM), 0.612. The relative viability in the assay with Avagacestat + Dasatinib (first compound 0.253 µM) was found to be 0.509; with Avagacestat + Dasatinib (first compound 0.8 µM), 0.618; with Avagacestat + Dasatinib (first compound 2.53 µM), 0.443; in the assay with Avagacestat + Dasatinib (first compound 8 µM) it was 0.493; with Avagacestat + Navitoclax (first compound 0.08 µM) it was 0.69; with Avagacestat + Navitoclax (first compound 0.253 µM), 0.723. Also, the relative viability with Avagacestat + Navitoclax (first compound 0.8 µM) worked out at 0.684; with Avagacestat + Navitoclax (first compound 2.53 µM), 0.531; with Avagacestat + Navitoclax (first compound 8 µM), 0.646; with Avagacestat + Crizotinib (first compound 0.08 µM), 0.739; with Avagacestat + Crizotinib (first compound 0.253 µM), 0.725; with Avagacestat + Crizotinib (first compound 0.8 µM), 0.732. For the same cell line, the relative viability in the assay with Avagacestat + Crizotinib (first compound 2.53 µM) was determined as 0.73; in the assay with Avagacestat + Crizotinib (first compound 8 µM) it was 0.761.

As to HCC-15, the relative viability with Avagacestat + Vorinostat (first compound 0.08 µM) came to 0.976; with Avagacestat + Vorinostat (first compound 0.253 µM), 1.03; with Avagacestat + Vorinostat (first compound 0.8 µM) it was 0.979; with Avagacestat + Vorinostat (first compound 2.53 µM), 0.796; in the assay with Avagacestat + Vorinostat (first compound 8 µM), 0.818; with Avagacestat + Dasatinib (first compound 0.08 µM), 0.685. The relative viability in the assay with Avagacestat + Dasatinib (first compound 0.253 µM) is 0.642; with Avagacestat + Dasatinib (first compound 0.8 µM), 0.652; with Avagacestat + Dasatinib (first compound 2.53 µM) it was 0.608; with Avagacestat + Dasatinib (first compound 8 µM), 0.539; with Avagacestat + Navitoclax (first compound 0.08 µM) it was 0.87; with Avagacestat + Navitoclax (first compound 0.253 µM) it was 0.806. Also, the relative viability with Avagacestat + Navitoclax (first compound 0.8 µM) worked out at 0.799; with Avagacestat + Navitoclax (first compound 2.53 µM) it was 0.732; with Avagacestat + Navitoclax (first compound 8 µM), 0.591; with Avagacestat + Crizotinib (first compound 0.08 µM) it was 0.871; with Avagacestat + Crizotinib (first compound 0.253 µM), 0.911; with Avagacestat + Crizotinib (first compound 0.8 µM), 0.695. For the same cell line, the relative viability with Avagacestat + Crizotinib (first compound 2.53 µM) was found to be 0.715; with Avagacestat + Crizotinib (first compound 8 µM), 0.779.

In the case of HCC-366, the relative viability in the assay with Avagacestat + Vorinostat (first compound 0.08 µM) was 0.472; in the assay with Avagacestat + Vorinostat (first compound 0.253 µM), 0.426; with Avagacestat + Vorinostat (first compound 0.8 µM), 0.437; with Avagacestat + Vorinostat (first compound 2.53 µM), 0.31; with Avagacestat + Vorinostat (first compound 8 µM), 0.385; with Avagacestat + Dasatinib (first compound 0.08 µM) it was 0.842. The relative viability with Avagacestat + Dasatinib (first compound 0.253 µM) is 0.981; with Avagacestat + Dasatinib (first compound 0.8 µM), 0.676; with Avagacestat + Dasatinib (first compound 2.53 µM), 0.544; with Avagacestat + Dasatinib (first compound 8 µM), 0.601; in the assay with Avagacestat + Navitoclax (first compound 0.08 µM) it was 1.23; in the assay with Avagacestat + Navitoclax (first compound 0.253 µM), 1.48. Further, the relative viability in the assay with Avagacestat + Navitoclax (first compound 0.8 µM) was 1; with Avagacestat + Navitoclax (first compound 2.53 µM), 1.09; in the assay with Avagacestat + Navitoclax (first compound 8 µM), 1.01; with Avagacestat + Crizotinib (first compound 0.08 µM) it was 0.608; with Avagacestat + Crizotinib (first compound 0.253 µM), 0.645; with Avagacestat + Crizotinib (first compound 0.8 µM), 0.517. For the same cell line, the results for the relative viability in the assay with Avagacestat + Crizotinib (first compound 2.53 µM) and with Avagacestat + Crizotinib (first compound 8 µM) were 0.525 and 0.645, respectively.

Consider NCI-H1666, for which the relative viability is 1.17 in the assay with Avagacestat + Vorinostat (first compound 0.08 µM); 1.23 with Avagacestat + Vorinostat (first compound 0.253 µM); 1.28 in the assay with Avagacestat + Vorinostat (first compound 0.8 µM); 1.12 with Avagacestat + Vorinostat (first compound 2.53 µM); 1.09 with Avagacestat + Vorinostat (first compound 8 µM); 0.819 in the assay with Avagacestat + Dasatinib (first compound 0.08 µM). The relative viability with Avagacestat + Dasatinib (first compound 0.253 µM) turned out to be 0.739; with Avagacestat + Dasatinib (first compound 0.8 µM), 0.876; in the assay with Avagacestat + Dasatinib (first compound 2.53 µM), 0.783; with Avagacestat + Dasatinib (first compound 8 µM) it was 0.653; with Avagacestat + Navitoclax (first compound 0.08 µM), 1.15; in the assay with Avagacestat + Navitoclax (first compound 0.253 µM), 1.11. In addition, the relative viability in the assay with Avagacestat + Navitoclax (first compound 0.8 µM) came out at 1.17; with Avagacestat + Navitoclax (first compound 2.53 µM), 0.955; with Avagacestat + Navitoclax (first compound 8 µM) it was 1.02; with Avagacestat + Crizotinib (first compound 0.08 µM) it was 1.3; in the assay with Avagacestat + Crizotinib (first compound 0.253 µM) it was 1.09; with Avagacestat + Crizotinib (first compound 0.8 µM) it was 1.23. Further, the relative viability with Avagacestat + Crizotinib (first compound 2.53 µM) worked out at 1.03; with Avagacestat + Crizotinib (first compound 8 µM) it was 0.957.

In the case of NCI-H1915, the relative viability came out at 0.56 with Avagacestat + Vorinostat (first compound 0.08 µM); 0.633 with Avagacestat + Vorinostat (first compound 0.253 µM); 0.522 with Avagacestat + Vorinostat (first compound 0.8 µM); 0.477 in the assay with Avagacestat + Vorinostat (first compound 2.53 µM); 0.479 with Avagacestat + Vorinostat (first compound 8 µM); 0.305 with Avagacestat + Dasatinib (first compound 0.08 µM). Also, the relative viability in the assay with Avagacestat + Dasatinib (first compound 0.253 µM) turned out to be 0.308; with Avagacestat + Dasatinib (first compound 0.8 µM) it was 0.279; in the assay with Avagacestat + Dasatinib (first compound 2.53 µM), 0.313; with Avagacestat + Dasatinib (first compound 8 µM) it was 0.341; in the assay with Avagacestat + Navitoclax (first compound 0.08 µM) it was 0.84; with Avagacestat + Navitoclax (first compound 0.253 µM), 0.812. Besides, the relative viability with Avagacestat + Navitoclax (first compound 0.8 µM) came out at 0.798; in the assay with Avagacestat + Navitoclax (first compound 2.53 µM), 0.807; in the assay with Avagacestat + Navitoclax (first compound 8 µM) it was 0.828; with Avagacestat + Crizotinib (first compound 0.08 µM) it was 0.924; with Avagacestat + Crizotinib (first compound 0.253 µM), 1.15; in the assay with Avagacestat + Crizotinib (first compound 0.8 µM), 0.964. Besides, the relative viability with Avagacestat + Crizotinib (first compound 2.53 µM) was found to be 0.912; with Avagacestat + Crizotinib (first compound 8 µM), 0.889.

As to NCI-H2085, the relative viability in the assay with Avagacestat + Vorinostat (first compound 0.08 µM) was 0.815; with Avagacestat + Vorinostat (first compound 0.253 µM), 0.855; in the assay with Avagacestat + Vorinostat (first compound 0.8 µM), 0.807; with Avagacestat + Vorinostat (first compound 2.53 µM) it was 0.758; with Avagacestat + Vorinostat (first compound 8 µM) it was 0.882; with Avagacestat + Dasatinib (first compound 0.08 µM) it was 0.201. Further, the relative viability stood at 0.202 in the assay with Avagacestat + Dasatinib (first compound 0.253 µM); 0.229 with Avagacestat + Dasatinib (first compound 0.8 µM); 0.222 in the assay with Avagacestat + Dasatinib (first compound 2.53 µM); 0.252 with Avagacestat + Dasatinib (first compound 8 µM); 1.21 with Avagacestat + Navitoclax (first compound 0.08 µM); 1.37 in the assay with Avagacestat + Navitoclax (first compound 0.253 µM). The relative viability stood at 1.13 with Avagacestat + Navitoclax (first compound 0.8 µM); 1.26 with Avagacestat + Navitoclax (first compound 2.53 µM); 1.08 in the assay with Avagacestat + Navitoclax (first compound 8 µM); 0.928 with Avagacestat + Crizotinib (first compound 0.08 µM); 0.975 in the assay with Avagacestat + Crizotinib (first compound 0.253 µM); 1 with Avagacestat + Crizotinib (first compound 0.8 µM). Further, the relative viability with Avagacestat + Crizotinib (first compound 2.53 µM) was determined as 1.04; with Avagacestat + Crizotinib (first compound 8 µM), 0.811.
